According to paper PMC10247784, “Physiological activation of human and mouse bitter taste receptors by bile acids” (Communications Biology, 2023):

Test system: HEK293T-Gα16gust44 cells transfected with empty vector (mock)
Assay: Calcium imaging assay (FLIPR), empty vector control (mock)
Assay type: cell-based
Procedure: This set of bile acids was chosen because of their commercial availability in high purities, their diversity within the class of bile acids and their previous detection and quantitation in human blood. Stock solutions were prepared in DMSO.
As basal growth medium for the HEK293T-Gα16gust44 cell line[17],[59] served Dulbecco’s modified eagle medium (DMEM) (Thermo Fisher Scientific, Darmstadt, Germany) supplemented with 10 % fetal bovine serum (Sigma-Aldrich, Steinheim, Germany), 2 mM L-glutamine (Sigma-Aldrich, Steinheim, Germany), 100 units/ml penicillin (Sigma Aldrich, Steinheim, Germany) and 100 µg/ml streptomycin (Sigma Aldrich, Steinheim, Germany). Growth conditions were 37 °C, 5 % CO2 and saturated air-humidity[60].
HEK293T-Gα16gust44 cells were seeded on poly-D-lysine (10 µg/ml) coated 96-well plates to reach a confluence of 40-60 % the next day. For transient transfection 150 ng of plasmid DNA containing the receptor of interest and 0.3 µl lipofectamine 2000 (Thermo Fisher Scientific, Darmstadt, Germany) per well were used and transfection took place according to the manual of lipofectamine 2000. […] The empty vector DNA (mock) was transfected as negative control[14],[41].
Cells were loaded using the calcium-sensitive fluorescent dye Fluo-4-AM (Abcam, Cambridge, Great Britain) in the presence of 2.5 mM probenecid (Sigma-Aldrich, Steinheim, Germany) the day after transfection[13],[41]. 1 h after loading, cells were washed with C1 buffer using a BioTek Cell Washer, incubated in the dark for half an hour and washed again. For automated agonist application and measurement of fluorescence changes, a FLIPR^TETRA device (Molecular Devices, San José, United States) was used. Viability of cells was tested by application of 100 nM Somatostatin 14 (Bachem, Bubendorf, Switzerland)[42].
Measured data were negative control corrected by subtracting the signal of the mock-transfected cells and exported to Microsoft Excel using the FLIPR software ScreenWorks 4.2. In Microsoft Excel software, standardization of maximum fluorescence intensities to the basal fluorescence and normalization to the buffer-only control was done to calculate the relative fluorescence changes (ΔF/F).
Initial screening experiments performed in duplicate wells were confirmed by at least one replication and representative traces were selected for display. All dose-response relationships were determined by three independent experiments (biological replicates) performed in duplicates (technical replicates). Threshold concentrations, defined as lowest substance concentrations leading to statistically significant elevated fluorescence changes in receptor-transfected cells compared with empty vector-transfected cells, were determined using SigmaPlot with Student’s t-test to evaluate statistical significance (p < 0.01).

[1] = Mock (sheet Tas2r123), conc. 0,01 mM
[2] = Mock (sheet Tas2r123), conc. 0,03 mM
[3] = Mock (sheet Tas2r123), conc. 0,0003 mM
[4] = Mock (sheet Tas2r123), conc. 0,001 mM
[5] = Mock (sheet Tas2r123), conc. 0,003 mM
[6] = Mock, sheet TAS2R4, conc. 0,01 mM
[7] = Mock, sheet TAS2R4, conc. 0,03 mM
[8] = Mock, sheet TAS2R4, conc. 0,0003 mM
[9] = Mock, sheet TAS2R4, conc. 0,001 mM
[10] = Mock, sheet TAS2R4, conc. 0,003 mM
[11] = Mock, sheet Tas2r105, conc. 0,01 mM
[12] = Mock, sheet Tas2r105, conc. 0,001 mM
[13] = Mock, sheet Tas2r105, conc. 0,003 mM
[14] = conc. 0,01 mM, Mock (sheet TAS2R1)
[15] = conc. 0,03 mM, Mock (sheet TAS2R1)
[16] = conc. 0,001 mM, Mock (sheet TAS2R1)
[17] = conc. 0,003 mM, Mock (sheet TAS2R1)
[18] = conc. 0,0001 mM, Mock (sheet TAS2R1)
[19] = conc. 0,0003 mM, Mock (sheet TAS2R1)

C[C@H](CCC(=O)O)[C@H]1CC[C@H]2[C@@H]3[C@H](O)C[C@@H]4C[C@H](O)CC[C@]4(C)[C@H]3C[C@H](O)[C@]12C [Cholic Acid, cholic acid]
Δ F/F (Conc. 0,01 mM, Mock (sheet TAS2R39)): -0.01821 | Δ F/F (Conc. 0,1 mM, Mock (sheet TAS2R39)): -0.02224 | Δ F/F (Conc. 0,03 mM, Mock (sheet TAS2R39)): -0.01697 | Δ F/F (Conc. 0,3 mM, Mock (sheet TAS2R39)): -0.04388 | Δ F/F (Conc. 0,001 mM, Mock (sheet TAS2R39)): -0.01201 | Δ F/F (Conc. 1 mM, Mock (sheet TAS2R39)): -0.08707 | Δ F/F (Conc. 0,003 mM, Mock (sheet TAS2R39)): -0.01404 | Δ F/F [1]: -0.0003322 | Δ F/F (Mock (sheet Tas2r123), conc. 0,1 mM): -0.0005726 | Δ F/F [2]: -0.0005964 | Δ F/F (Mock (sheet Tas2r123), conc. 0,3 mM): 0.0008115 | Δ F/F [3]: -0.001363 | Δ F/F [4]: -0.001187 | Δ F/F [5]: -0.0002243 | Δ F/F (Mock (sheet Tas2r126), conc. 0,01 mM): -0.02005 | Δ F/F (Mock (sheet Tas2r126), conc. 0,1 mM): -0.02997 | Δ F/F (Mock (sheet Tas2r126), conc. 0,03 mM): -0.01829 | Δ F/F (Mock (sheet Tas2r126), conc. 0,3 mM): -0.04711 | Δ F/F (Mock (sheet Tas2r126), conc. 0,001 mM): -0.01156 | Δ F/F (Mock (sheet Tas2r126), conc. 1 mM): -0.07412 | Δ F/F (Mock (sheet Tas2r126), conc. 0,003 mM): -0.01876 | Δ F/F (Mock (sheet Tas2r144), conc. 0,01 mM): 0.0002394 | Δ F/F (Mock (sheet Tas2r144), conc. 0,1 mM): -0.0009617 | Δ F/F (Mock (sheet Tas2r144), conc. 0,03 mM): 0.0001706 | Δ F/F (Mock (sheet Tas2r144), conc. 0,3 mM): 2.3167e-5 | Δ F/F (Mock (sheet Tas2r144), conc. 0,003 mM): -0.001282 | Δ F/F [6]: -0.001675 | Δ F/F (Mock, sheet TAS2R4, conc. 0,1 mM): 0.0001605 | Δ F/F [7]: -0.001772 | Δ F/F (Mock, sheet TAS2R4, conc. 0,3 mM): 0.0004382 | Δ F/F [8]: 0.001019 | Δ F/F [9]: -0.0001368 | Δ F/F [10]: -0.001078 | Δ F/F (Mock, sheet TAS2R14, conc. 0,01 mM): -0.01829 | Δ F/F (Mock, sheet TAS2R14, conc. 0,1 mM): -0.02451 | Δ F/F (Mock, sheet TAS2R14, conc. 0,03 mM): -0.01803 | Δ F/F (Mock, sheet TAS2R14, conc. 0,3 mM): -0.04097 | Δ F/F (Mock, sheet TAS2R14, conc. 0,001 mM): -0.0206 | Δ F/F (Mock, sheet TAS2R14, conc. 1 mM): -0.06455 | Δ F/F (Mock, sheet TAS2R14, conc. 0,003 mM): -0.02081 | Δ F/F [11]: -0.01514 | Δ F/F (Mock, sheet Tas2r105, conc. 0,1 mM): -0.02586 | Δ F/F (Mock, sheet Tas2r105, conc. 0,03 mM): -0.01353 | Δ F/F (Mock, sheet Tas2r105, conc. 0,3 mM): -0.04947 | Δ F/F [12]: -0.01259 | Δ F/F (Mock, sheet Tas2r105, conc. 1 mM): -0.08731 | Δ F/F [13]: -0.01645 | Δ F/F (Mock, sheet Tas2r108, conc. 0,01 mM): -0.0241 | Δ F/F (Mock, sheet Tas2r108, conc. 0,1 mM): -0.03289 | Δ F/F (Mock, sheet Tas2r108, conc. 0,03 mM): -0.0233 | Δ F/F (Mock, sheet Tas2r108, conc. 0,3 mM): -0.05172 | Δ F/F (Mock, sheet Tas2r108, conc. 0,001 mM): -0.01866 | Δ F/F (Mock, sheet Tas2r108, conc. 1 mM): -0.07524 | Δ F/F (Mock, sheet Tas2r108, conc. 0,003 mM): -0.01483 | Δ F/F (Mock, sheet Tas2r117, conc. 0,01 mM): -0.001513 | Δ F/F (Mock, sheet Tas2r117, conc. 0,1 mM): -0.0006881 | Δ F/F (Mock, sheet Tas2r117, conc. 0,03 mM): -0.0006551 | Δ F/F (Mock, sheet Tas2r117, conc. 0,3 mM): -0.001135 | Δ F/F (Mock, sheet Tas2r117, conc. 0,0003 mM): -0.002036 | Δ F/F (Mock, sheet Tas2r117, conc. 0,001 mM): -0.0005906 | Δ F/F (Mock, sheet Tas2r117, conc. 0,003 mM): -0.001196 | Δ F/F [14]: -0.002604 | Δ F/F (conc. 0,1 mM, Mock (sheet TAS2R1)): -0.002131 | Δ F/F [15]: -0.002188 | Δ F/F (conc. 0,3 mM, Mock (sheet TAS2R1)): -0.001094 | Δ F/F [16]: -0.001978 | Δ F/F [17]: -0.003067

C[C@H](CCC(=O)O)[C@H]1CC[C@H]2[C@@H]3CC[C@@H]4C[C@H](O)CC[C@]4(C)[C@H]3CC[C@]12C [Lithocholic Acid, lithocholic acid]
Δ F/F [11]: -0.0002988 | Δ F/F (Mock, sheet Tas2r105, conc. 0,00001 mM): -0.01431 | Δ F/F (Mock, sheet Tas2r105, conc. 0,00003 mM): -0.01708 | Δ F/F (Mock, sheet Tas2r105, conc. 0,0001 mM): -0.01503 | Δ F/F (Mock, sheet Tas2r105, conc. 0,0003 mM): -0.01339 | Δ F/F [12]: -0.01175 | Δ F/F [13]: -0.00295 | Δ F/F (conc. 0,00003 mM, Mock (sheet TAS2R1)): -7.475e-5 | Δ F/F [18]: -0.001646 | Δ F/F [19]: -0.002463 | Δ F/F [16]: -0.001163 | Δ F/F [17]: -0.0001447

C[C@H](CCC(=O)O)[C@H]1CC[C@H]2[C@@H]3[C@@H](O)C[C@@H]4C[C@H](O)CC[C@]4(C)[C@H]3CC[C@]12C [Ursodeoxycholic Acid, ursodeoxycholic acid]
Δ F/F [1]: -0.001066 | Δ F/F [2]: -0.001504 | Δ F/F (Mock (sheet Tas2r123), conc. 0,0001 mM): -0.001573 | Δ F/F [3]: -0.001292 | Δ F/F [4]: -0.005211 | Δ F/F [5]: -0.001793 | Δ F/F [6]: -0.0004613 | Δ F/F [7]: -0.0005491 | Δ F/F (Mock, sheet TAS2R4, conc. 0,00003 mM): -0.0004806 | Δ F/F (Mock, sheet TAS2R4, conc. 0,0001 mM): -0.001738 | Δ F/F [8]: 0.0005593 | Δ F/F [9]: -0.001147 | Δ F/F [10]: -0.0007234 | Δ F/F [14]: 0.000483 | Δ F/F [15]: -0.001233 | Δ F/F [18]: 0.0008084 | Δ F/F [19]: -0.0004379 | Δ F/F [16]: -0.001051 | Δ F/F [17]: -0.001084
